# Reference: PubChem BioAssay AID623925 (Vanderbilt Specialized Chemistry Center, 2012)
# Calls of active or inactive are those of the source.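 Rule for the calls: active = compounds whose calcium response changes with concentration, giving a dose-dependent curve as judged by the depositor; inactive = the rest, with no dose-dependent response.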
# Target: Muscarinic acetylcholine receptor M2 (Homo sapiens) (UniProt P08172)
# Assay: human M2 receptor positive allosteric modulation, SAR follow-up, selectivity assay for M4 PAM optimization, CHO cells, Gqi5 chimera, calcium mobilization (AID 623925)
# Conditions: CHO hM2/Gqi5 calcium mobilization, ACh EC20 potentiation
# Muscarinic acetylcholine receptor M2 (Homo sapiens), sequence (P08172 whole entry, looked up): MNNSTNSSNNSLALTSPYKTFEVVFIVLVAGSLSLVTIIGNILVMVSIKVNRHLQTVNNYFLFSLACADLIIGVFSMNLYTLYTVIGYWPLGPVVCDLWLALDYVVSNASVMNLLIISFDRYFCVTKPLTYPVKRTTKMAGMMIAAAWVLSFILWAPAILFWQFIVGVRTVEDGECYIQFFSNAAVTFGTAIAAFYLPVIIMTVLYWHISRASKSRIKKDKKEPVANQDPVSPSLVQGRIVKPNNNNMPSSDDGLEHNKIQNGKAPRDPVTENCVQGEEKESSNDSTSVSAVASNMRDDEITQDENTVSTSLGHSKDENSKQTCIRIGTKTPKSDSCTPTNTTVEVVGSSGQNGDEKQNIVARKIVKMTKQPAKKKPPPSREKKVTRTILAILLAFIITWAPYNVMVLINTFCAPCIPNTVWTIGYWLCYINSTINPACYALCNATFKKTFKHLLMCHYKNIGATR
SMILES,outcome,EC50 [nM]
Cc1nc2sc(C(=O)NCc3ccncc3)c(N)c2c(C)c1Cl,inactive,–
Cc1nc2sc(C(=O)NC3CC3)c(N)c2c(C)c1Cl,–,548
Cc1nc2sc(C(=O)NCc3ccc4c(c3)OCO4)c(N)c2c(C)c1Cl,inactive,–

# The next lines start with the values.
outcome,EC50 [nM],SMILES
inactive,–,Cc1nc2sc(C(=O)NCc3ccccc3)c(N)c2c(C)c1Cl
inactive,–,Cc1nc2sc(C(=O)NCc3cccnc3)c(N)c2c(C)c1Cl

# Same assay, conditions: CHO hM2/Gqi5 calcium mobilization, ACh EC20 potentiation; at 30 µM (top of the series)
row,% ACh max response,SMILES
1,inactive,Cc1nc2sc(C(=O)NCc3ccncn3)c(N)c2c(C)c1Cl
2,inactive,Cc1nc2sc(C(=O)NCCc3ccncc3)c(N)c2c(C)c1Cl
3,inactive,Cc1nc2sc(C(=O)NCc3cccc(F)c3F)c(N)c2c(C)c1Cl
4,inactive,COc1ccc(C)c2sc(NC(=O)c3ccncc3)nc12
5,inactive,Cc1nc2sc(C(=O)NCc3nccs3)c(N)c2c(C)c1Cl
